The values that follow are results of earlier work, collected in patent publication US7396837B2, “Antitumoral analogs of lamellarins” (Pharma Mar, S.A.U., priority 2002, dated 2008).

The structures appear in SMILES notation.

This series has as its system lung cancer cell lines. The settings on record: acting as a Type IV microtubule poison; cited from earlier work.

Consider `COc1ccc(-c2c3c4cc(OC)c(O)cc4oc(=O)c3n3ccc4cc(O)c(OC)cc4c23)cc1O` [Lamellarin N, lamellarin N], for which the “activity in lung cancer cell lines” value is “exhibit activity in lung cancer cell lines”.
